Key:
D3 [1] = molecular target: T1, D3 (Homo sapiens, UniProt P55073); settings: read-out: Ki, D3-catalyzed T3 5 deiodination; competitive inhibitor; cited from earlier work
T1 sequence (P55073 1-304): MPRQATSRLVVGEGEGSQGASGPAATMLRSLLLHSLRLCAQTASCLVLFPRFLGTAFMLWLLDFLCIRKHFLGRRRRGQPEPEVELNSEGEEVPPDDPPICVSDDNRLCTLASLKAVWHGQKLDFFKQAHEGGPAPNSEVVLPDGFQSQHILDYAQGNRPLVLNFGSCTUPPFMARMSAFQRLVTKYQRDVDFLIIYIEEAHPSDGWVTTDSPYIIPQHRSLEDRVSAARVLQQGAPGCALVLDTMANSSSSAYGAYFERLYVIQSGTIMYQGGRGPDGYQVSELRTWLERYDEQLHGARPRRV

D1 [2] = molecular target: T2, D1 (Homo sapiens, UniProt P49895); settings: competitive inhibitor; read-out: Ki, D1-catalyzed rT3 deiodination; cited from earlier work
T2 sequence (P49895 1-249): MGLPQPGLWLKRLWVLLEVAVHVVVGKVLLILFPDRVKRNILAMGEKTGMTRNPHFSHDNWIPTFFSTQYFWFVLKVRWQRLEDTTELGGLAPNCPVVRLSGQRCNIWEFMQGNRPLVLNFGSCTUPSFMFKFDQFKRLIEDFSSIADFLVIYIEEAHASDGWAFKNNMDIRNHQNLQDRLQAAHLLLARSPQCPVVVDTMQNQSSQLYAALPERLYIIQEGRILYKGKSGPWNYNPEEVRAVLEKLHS

D1 [3] = molecular target: T2, D1; assay: Inhibition of D1-catalyzed rT3 deiodination; assay type: biochemical; settings: D1 much more sensitive to inhibition than D3
From the text: In addition to those specifically disclosed herein, additional D3 inhibitors can be identified by the generation of analogs or derivatives of known inhibitors, which can be used as lead compounds. […] Based upon such differences, lead compounds can be generated that have excellent specificity for specific deiodinases.

D3 [4] = settings: cited from earlier work
[5] = Wild-type mice made hypothyroid with perchlorate, epididymal fat pad weight; assay type: in vivo, mouse; settings: 0.04% perchlorate for two months, relative weight of epididymal fat pad, P<0.01
From the text: Analysis of relative weights (compared to total body weight) of male epididymal (EPI) and female parametrial white adipose tissue (WAT) indicated a significant reduction in adult D3KO mice (20% reduction in males and 35% in females, P<0.001, see FIG. 1). This reduction was more marked in aged D3KO mice (60%, P<0.001). […] These alterations were not due to the moderate hypothyroidism present in the D3KO mouse, as wild-type mice made hypothyroid with 0.04% perchlorate to a degree similar to that in D3KO mice manifested a 15% increase in EPI WAT weight (P<0.01, FIG. 3). Thus, the decreased adiposity of the D3KO mouse is both unexpected and even more striking in degree.

Structure (SMILES): OC[C@@H](O)[C@@H](O)[C@H](O)[C@@H](O)C=S.[Au] [gold thioglucose]
- Ki (D3 [1]): 5200 nM
- Ki (D1 [2]): 6 nM
- difference in Ki between D1 and D3 inhibition (D1 [3]): approximately 1000 fold

Structure (SMILES): O=C(O)CI [iodoacetate]
- D3 inhibitory activity (D3 [4]): exhibits D3 inhibitory activity

Structure (SMILES): CCC(Cc1c(I)cc(I)c(N)c1I)C(=O)O (stereo not drawn) [iopanoic acid]
- D3 inhibitory activity (D3 [4]): effectively inhibit D3 activity

Structure (SMILES): [O-][Cl+3]([O-])([O-])O [perchlorate]
- increase in EPI WAT weight [5]: 15%

— patent publication US8304401B2, “Compositions and methods for decreasing type III deiodinase activity to modulate adiposity and blood glucose levels” (Trustees of Dartmouth College, priority 2008, dated 2012)
